Data set [1] addresses human kinesin spindle protein KSP/Eg5 (Homo sapiens (Human), UniProt P52732). Nature of the data set: Inhibition of the kinesin spindle protein KSP/Eg5 (ATPase, malachite green). The note with it: Table 2; active metabolites; 10 nM KSP motor domain, 500 μM ATP. It counts as biochemical. Here is the method:
The motor domain of the human kinesin spindle protein KSP/Eg5 (tebu-bio/Cytoskeleton Inc, No. 027EG01-XL) was incubated in a concentration of 10 nM with microtubuli (bovine or porcine, tebu-bio/Cytoskeleton Inc) stabilized with 50 μg/ml taxol (Sigma No. T7191-5MG) for 5 min at RT in 15 mM PIPES, pH 6.8 (5 mM MgCl2 and 10 mM DTT, Sigma). […] Incubation was at RT for 2 h. ATPase activity was detected by detecting the inorganic phosphate formed using malachite green (Biomol). […] The positive controls used were monastrol (Sigma, M8515-1 mg) and ispinesib (AdooQ Bioscience A10486). The individual data of the dose-activity curve are eight-fold determinations. The IC50 values are means of two independent experiments.

Data set [2] relates to Caco-2 cells. In words: Caco-2 flux assay for cell permeability. It counts as in vitro ADME. Here is the method:
The cell permeability of a substance can be investigated by means of in vitro testing in a flux assay using Caco-2 cells [M. D. Troutman and D. R. Thakker, Pharm. […] For this purpose, the cells were cultured for 15-16 days on 24-well filter plates. For the determination of permeation, the respective test substance was applied in a HEPES buffer to the cells either apically (A) or basally (B) and incubated for 2 hours. After 0 hours and after 2 hours, samples were taken from the cis and trans compartments. The samples were separated by HPLC (Agilent 1200, Böblingen, Germany) using reverse phase columns. The HPLC system was coupled via a Turbo Ion Spray Interface to a Triple Quadropol mass spectrometer API 4000 (AB SCIEX Deutschland GmbH, Darmstadt, Germany).
Of critical importance for toxophors which are released intracellularly is the permeability from B to A [Papp (B-A)] and the ratio of Papp (B-A) to Papp (A-B) (efflux ratio): the lower this permeability, the slower the active and passive transport processes of the substance through the monolayer of Caco-2 cells.

A short description of data set [3]: Stability in rat liver lysosomes. The data set is classed as in vitro ADME. The conditions noted are these: rat liver lysosomal extract, 37° C.; for extent of cleavage in the lysosomal stability assay: within 24 h. Here is the method:
To determine the lysosomal stability of compounds RM-A and RM-B, lysosomal enzymes were isolated from rat liver cells. Compounds A and B were each added to this lysosomal extract in order to examine stability under lysosomal conditions. The proteolytic enzyme legumain is expressed only in a very small amount, if any, in rat liver lysosomes (Chen, J-M. et al 1997). To monitor the enzymatic activity of the lysosomal enzymes, a cathepsin-specific substrate was added.
First of all, a fresh rat liver was removed, weighed and immediately placed on ice in homogenization medium (0.25 M sucrose, 1 mM EDTA, 10 mM HEPES, pH7). The liver was comminuted and a change of medium was undertaken. The rat livers were homogenized with 4 times the amount of the rat liver weight at 750 rpm in a Potter (B. Braun). The homogenate was centrifuged at 1000 g for 10 min and the supernatant was filtered. In the next step, with the aid of an ultracentrifuge, the “light mitochondrial fraction” (LMF) was centrifuged out of the supernatant at 26 500 g over 20 min. Also present in the pellet apart from mitochondria are the lysosomes. The supernatant was discarded and the pellet was resuspended with 0.8 ml/g of homogenization medium.
The sucrose was added from a 2.3 M stock solution of the particular percentage. 2.5 ml of isolated LMF were additionally added to the density stage with a sucrose content of 19%. Subsequently, the density stages were layered one on top of another in 10 ml centrifuge tubes and centrifuged at 48 500 g for 17 h. […] To monitor the lysis, the protein content of the lysed lysosomal fraction was monitored with the aid of a BCA assays (Pierce BCA protein assay kit).
To examine the lysosomal stability of compounds RM-A and RM-B, 6 μl of a 100 μg/ml stock solution (9 acetonitrile/1 DMSO) were added to 290 μl of 90 mM citrate buffer and 300 μl of lysosomal extract and incubated at 37° C. on an Eppendorf shaker. […] For the RP-HPLC LCMS analysis, the samples were diluted with 300 μl of 10 mM ammonium acetate buffer (pH 6.8) and analysed.

Data set [4] has as its target legumain (Homo sapiens (Human), UniProt Q99538). Nature of the data set: Legumain assay (cleavage of prodrug). It counts as biochemical. The conditions noted are these: pH 5.0; for half-life: human, recombinant human legumain, rh legumain 1 ng/μl, 50 mM MES, 250 mM NaCl, read-out: half-life of cleavage to the target compound in the legumain assay (converted). Here is the method: The legumain assay was conducted with recombinant human enzyme. The rh legumain enzyme solution (catalogue #2199-CY, R&D Systems) was diluted to the desired concentration in 50 mM Na acetate buffer/100 mM NaCl, pH4.0 and preincubated at 37° C. for 2 h. rh legumain was then adjusted to a final concentration of 1 ng/μl in 50 mM MES buffer, 250 mM NaCl, pH 5.0. For every legumain-cleavable prodrug to be examined, a mixture was made up in a micro reaction vessel (0.5 ml, from Eppendorf). For this purpose, the substrate solution was adjusted to the desired concentration (double concentration) with 50 mM MES buffer, 250 mM NaCl, pH 5.0. For the kinetic measurement of the enzymatic reaction, 250 μl of the legumain solution were first initially charged and the enzyme reaction was started by adding 250 μl of the substrate solution (final concentration: single concentration). At different times, 50 μl samples were taken. This sample was admixed immediately with 100 μl of ice-cold methanol in order to stop the enzymatic reaction and then frozen at −20° C. The times selected for sampling were after 0.5 h, 1 h, 3 h and 24 h. The samples were then analysed by means of RP-HPLC analysis and by LC-MS analysis. The determination of the toxophore released enabled the determination of the half-life t1/2 of the enzymatic reaction (FIG. 1).

“Also recorded” adds a separate entry of the source. Where a name gives a salt, the structure may show the parent alone.

Sequence of legumain (Q99538 18-323): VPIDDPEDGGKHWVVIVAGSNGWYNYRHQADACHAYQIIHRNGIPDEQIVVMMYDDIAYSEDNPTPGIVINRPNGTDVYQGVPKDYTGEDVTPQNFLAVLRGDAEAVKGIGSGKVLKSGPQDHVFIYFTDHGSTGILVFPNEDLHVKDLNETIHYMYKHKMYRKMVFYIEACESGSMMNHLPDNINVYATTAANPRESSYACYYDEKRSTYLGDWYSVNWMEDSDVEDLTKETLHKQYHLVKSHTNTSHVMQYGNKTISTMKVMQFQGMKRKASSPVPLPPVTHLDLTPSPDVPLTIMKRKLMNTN
Sequence of human kinesin spindle protein KSP/Eg5 (P52732 18-359): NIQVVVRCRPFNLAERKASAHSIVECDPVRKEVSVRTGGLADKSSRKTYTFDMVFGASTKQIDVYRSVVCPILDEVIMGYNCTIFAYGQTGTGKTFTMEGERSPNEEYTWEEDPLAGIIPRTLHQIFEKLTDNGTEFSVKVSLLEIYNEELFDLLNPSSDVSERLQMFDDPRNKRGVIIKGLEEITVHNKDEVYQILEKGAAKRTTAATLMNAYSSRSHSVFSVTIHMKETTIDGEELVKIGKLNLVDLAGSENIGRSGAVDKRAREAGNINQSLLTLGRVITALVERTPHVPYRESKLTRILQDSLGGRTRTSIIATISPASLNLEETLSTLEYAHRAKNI

On to `CC(C)(C)[C@H](c1cc(-c2cc(F)ccc2F)cn1Cc1ccccc1)N(CC[C@H](N)C(=O)NCCNC(=O)[C@@H](CCC(=O)O)NC(=O)CNC(=O)[C@H](CC(=O)O)SC[C@H](N)C(=O)O)C(=O)CO` [Example M2, trifluoroacetic acid salt], for which the IC50 in data set [1] was 0.467 nM. Further, the “transport from the cell and efflux ratio (in words)” value in data set [2] (Caco-2) is “very low level of transport from the cell and a low efflux ratio”. For the same molecule, the “Papp (B-A)” value in data set [2] (Caco-2, basal to apical, 2 hours) came to 0.11 ×10⁻⁶ cm/s. In data set [2] (Caco-2, ratio of Papp (B-A) to Papp (A-B)), the Efflux ratio stood at 1.6.

As to `CNC(=O)[C@H](CCN(C(=O)CO)[C@@H](c1cc(-c2cc(F)ccc2F)cn1Cc1ccccc1)C(C)(C)C)NC(=O)[C@H](CC(N)=O)NC(=O)[C@H](C)NC(=O)[C@H](C)NC(=O)Cc1ccncc1` [RM-A, N-(Pyridin-4-ylacetyl)-L-alanyl-L-alanyl-N^1-[(2S)-4-[{(1R)-1-[1-benzyl-4-(2,5-difluorophenyl)-1H-pyrrol-2-yl]-2,2-dimethylpropyl}(glycoloyl)amino]-1-(methylamino)-1-oxobutan-2-yl]-L-aspartamide], in data set [3], the half-life at 1 µg/ml is around 6 h and the “extent of cleavage in the lysosomal stability assay” value is “about 80%”. The half-life in data set [4] is 0.2 h.

As for `CNC(=O)[C@H](CCN(C(=O)CO)[C@@H](c1cc(-c2cc(F)ccc2F)cn1Cc1ccccc1)C(C)(C)C)NC(=O)[C@H](CC(N)=O)NC(=O)Cc1ccncc1` [RM-B, N^1-[(2S)-4-[{(1R)-1-[1-Benzyl-4-(2,5-difluorophenyl)-1H-pyrrol-2-yl]-2,2-dimethylpropyl}(glycoloyl)amino]-1-(methylamino)-1-oxobutan-2-yl]-N^2-(pyridin-4-ylacetyl)-L-aspartamide], the “extent of cleavage in the lysosomal stability assay” value in data set [3] is 13%. The half-life in data set [4] was around 10 h.

As for `CNC(=O)[C@H](CCN(C(=O)CO)[C@@H](c1cc(-c2cc(F)ccc2F)cn1Cc1ccccc1)C(C)(C)C)NC(=O)[C@H](CCC(N)=O)NC(=O)Cc1ccncc1` [RM-C, N^1-[(2S)-4-[{(1R)-1-[1-Benzyl-4-(2,5-difluorophenyl)-1H-pyrrol-2-yl]-2,2-dimethylpropyl}(glycoloyl)amino]-1-(methylamino)-1-oxobutan-2-yl]-N^2-(pyridin-4-ylacetyl)-L-glutamide], in data set [4] (rh legumain), the “cleavage by legumain (in words)” value is listed as “not cleaved; also recorded: not possible to show any cleavage by legumain”.

For the origin of these results see US12059472B2 (Bayer Aktiengesellschaft, priority 2016, dated 2024).
